Like-named read-outs stand apart in the source and are kept apart here.
Tests used:
[1] = Pooled analysis of seven placebo-controlled trials: albuminuria in elderly T2D patients with diabetic nephropathy (set 2); type: in vivo, human; conditions: 5 mg q.d., 24 weeks, set 2, aged ≧65 years
From the text: (§1) The endpoint in both sets was the percentage change in geometric mean UACR after 24 weeks.

[2] = for feτ, s: steady state (Day 12), gMean
podocalyxin = test: Podocalyxin immunohistochemistry of kidney sections (podocyte integrity) in db/db mice; type: in vivo; conditions: 12 weeks, semi-quantitative score 0-3, p<0.05 vs diabetic mice
Method: The expression of podocalyxin is analysed by immunohistochemistry using a podocalyxin specific antibody. Kidney sections from male diabetic db/db mice (10 weeks old at start and treated for 3 months) in the following groups are analysed:
All of the evaluations of the glomerular staining intensities are done semi-quantitatively by two different experts of kidney pathology blinded for the slides.
The predefined scoring gradient is 0, 1, 2, and 3.0 means no expression, whereas 3 is given when expression is highest. Group means are compared with a non-parametric test. P values less than 0.05 are considered significant.
(§2) Diabetic nephropathy is the main cause of end-stage renal disease. […] Heterozygous db/+ mice treated with vehicle were used as controls (n=8). Levels of glucose, triglycerides, insulin, cystatin C and creatinine were analysed in serum and urine samples at baseline and monthly thereafter. Body weight, urinary albumin excretion and OGTT were monitored periodically.
(§3) Renal histology (glomerulosclerosis, tubulointerstitial fibrosis) and expression of the sialoglycoprotein podocalyxin (a marker of podocyte integrity in the glomeruli, marker for glomerular damage), glucagon-like peptide 1 receptor (GLP-1R), alpha-smooth muscle actin and type I collagen were evaluated at the end of the study.

[3] = Pooled analysis of four 24-week placebo-controlled trials: albuminuria in T2D patients with early diabetic nephropathy on stable ACE/ARB (set 1); type: in vivo, human; conditions: 5 mg qd, 24 weeks
From the text: Despite optimal therapy, people with type 2 diabetes (T2D) remain at high risk for kidney damage, manifest as abuminuria, and many develop progressive renal failure. Further, despite optimal therapy with inhibitors of the renin-angiotensin-aldosterone system (RAAS), patients with type 2 diabetes mellitus (T2DM) remain at an increased risk of progressive renal failure and cardiovascular disease, for which abuminuria has emerged as a predictive biomarker. […] Participants were included in this analysis if they had: i) 30≦UACR≦3000 mg/g creatinine; ii) stable treatment with ACE/ARBs ≧4 weeks prior and during the trial; and iii) eGFR >30 ml/min/1.73 m^2. The endpoint was the percentage change in geometric mean UACR. […] After 24 weeks, placebo-corrected changes in A1C and FPG were −0.71% and −26 mg/dl, respectively (both p<0.0001). […] This protective effect may be independent of race.
as §1

male diabetic db/db mice = test: Diabetic nephropathy study in db/db mice (serum/urine parameters, renal histology); type: in vivo; conditions: for glomerular mesangial matrix expansion (histology) / tubulointerstitial fibrosis (histology): compared with diabetic vehicle; for effects on fasted or post-prandial glucose levels: db/db mice, 12 weeks treatment, linagliptin 3 mg/kg/day, enalapril 20 mg/kg/day
Method: as §2, §3

[4] = tested on: glucagon-like peptide 1 receptor (GLP-1R); test: GLP-1R immunohistochemical staining of kidney sections in db/db mice; type: in vivo; conditions: P<0.05 vs vehicle-treated db/db mice
Method: as §2, §3

[5] = Meta-analysis of renal safety/outcomes in 13 phase 3 placebo-controlled trials, 5466 T2D patients
From the text: The aim of this study was to evaluate renal safety/outcomes with linagliptin in phase 3, randomized, double-blind, placebo-controlled trials (≧12 wks).

[6] = linagliptin compared with enalapril, p<0.05

Row | Compound | UACR reduction versus placebo (trend) [1] | feτ, s ([2]; 1 mg once daily oral) | feτ, s ([2]; 2.5 mg once daily oral) | feτ, s ([2]; 5 mg once daily oral) | feτ, s ([2]; 10 mg once daily oral) | route of excretion ([2]; human, in vivo) | excreted via the kidney ([2]; therapeutic oral dose levels, of the administered oral dose) | podocalyxin expression (glomerular staining score) (podocalyxin) | UACR between group difference vs placebo ([3]; set 1) | lowering of adjusted UACR (percentage change in geometric mean) ([3]; set 1, on stable ACE/ARB) | glomerular mesangial matrix expansion (histology) (male diabetic db/db mice; p<0.05) | tubulointerstitial fibrosis (histology) (male diabetic db/db mice; p<0.05) | effects on fasted or post-prandial glucose levels (male diabetic db/db mice) | tubulointerstitial fibrosis (male diabetic db/db mice; [6]) | urinary albumin excretion rates (male diabetic db/db mice; [6]) | expression of GLP-1R in the glomeruli [4] | patients with composite renal endpoint events ([5]; linagliptin 5 mg qd, n=3505) | patients with composite renal endpoint events (number) ([5]; linagliptin 5 mg qd, n=3505) | HR for the composite endpoint vs placebo ([5]; patients <65 yrs) | HR for the composite endpoint vs placebo ([5]; patients >65 yrs)
1 | CC#CCn1c(N2CCC[C@@H](N)C2)nc2c1c(=O)n(Cc1nc(C)c3ccccc3n1)c(=O)n2C [linagliptin] | −25% | 3.34% | 3.06% | 6.27% | 3.22% | primarily excreted unchanged via the bile | < 7% | 2.3±0.2 | −29% | 33% | reduced almost to control levels | reduced almost to control levels | limited effects | significantly decreased | significantly decreased | 1.90±0.04 | 12.8% | 448 | 0.77 | 1.04
2 | CCOC(=O)[C@H](CCc1ccccc1)N[C@@H](C)C(=O)N1CCC[C@H]1C(=O)O [enalapril, reference compound] |  |  |  |  |  |  |  | 2.4±0.2 |  |  | reduced almost to control levels | reduced almost to control levels | limited effects |  |  |  |  |  |  | 
